Results: paper PMC4992173, “Divergent synthesis and identification of the cellular targets of deoxyelephantopins” (Nature Communications, 2016)

Target: T1, PPARγ (Homo sapiens, UniProt P37231)
T1 sequence (P37231 1-505): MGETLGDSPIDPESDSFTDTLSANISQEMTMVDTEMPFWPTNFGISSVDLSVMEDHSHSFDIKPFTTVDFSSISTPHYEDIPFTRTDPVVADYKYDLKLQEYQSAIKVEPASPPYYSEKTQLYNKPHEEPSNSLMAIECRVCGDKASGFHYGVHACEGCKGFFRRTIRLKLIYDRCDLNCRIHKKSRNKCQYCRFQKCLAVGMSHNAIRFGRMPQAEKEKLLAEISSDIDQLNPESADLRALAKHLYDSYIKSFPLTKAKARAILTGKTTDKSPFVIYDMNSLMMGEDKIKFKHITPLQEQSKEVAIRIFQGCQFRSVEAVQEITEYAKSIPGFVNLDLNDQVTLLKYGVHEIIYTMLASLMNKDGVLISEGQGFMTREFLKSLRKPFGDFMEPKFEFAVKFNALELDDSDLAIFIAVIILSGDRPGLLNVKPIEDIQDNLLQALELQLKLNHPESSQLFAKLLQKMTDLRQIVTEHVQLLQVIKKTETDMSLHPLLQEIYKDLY
Experiment: PPARγ enrichment from MCF7 lysates spiked with recombinant PPARγ (LC-MS/MS LFQ)
Format: binding
Details: for LFQ intensity (PPARG enriched by probe): MCF7 lysates spiked with recombinant PPARγ (30 nM), n=3
Description: On the basis of the reported interaction between deoxyelephantopin and PPARγ and because MCF7 cells are known to express very low levels of this protein, we investigated in a separate experiment whether deoxyelephantopin indeed covalently binds PPARγ. The recombinant transcription factor was spiked into MCF7 lysates to 30 nM final concentration and successfully enriched by the methacrylate ester probe 24c, as evidenced from LC–MS/MS-based label-free quantification (LFQ)[48]. […] To investigate whether DEP is also capable of binding to endogenous PPARγ directly in living cells, we performed a targeted competitive proteomics experiment in Caco-2, a colon cancer cell line known to express larger amounts of PPARγ[49]. The cells were treated in situ with dimethyl sulfoxide (DMSO) or 20 μM deoxyelephantopin, lysed and treated with 24c. Gratifyingly, endogenous PPARγ was successfully enriched and quantified from the DMSO-treated Caco-2 cells, whereas DEP pretreatment efficiently competed PPARγ enrichment (>95%; Fig. 7a). In yet another control experiment, we expressed hPPARγ in HeLa cells and successfully conducted a gel-based competition experiment once again using DEP as an in situ competitor and 24c-Cy3 as reporter probe (Supplementary Fig. 14).
Supplementary figure 13: LFQ quantification of PPARγ enrichment from supplemented MCF7 lysates using 10 µM of 23c or 24c as enrichment probes (n = 3). […]
was processed with MaxQuant (see below).
In situ global proteomics profiling using LC-MS/MS. Caco- ’ cells/mL) in a 6-well plate, allowed to grow to confluence and to differentiate for 28 days. The wells were washed one time with PBS and treated with either DMSO, 10 µM rosiglitazone, 50 µM T0070907 or 20 µM DEP for 24 hours. Cells were washed two times with PBS and lysates were prepared. Samples (30 µg) were denatured with 6 M urea in 50 mM NH4HCO3, reduced […]
dark. Samples were diluted to 2 M urea with 50 mM NH4HCO3, and digested with trypsin ([…] for 12 hours at 37 °C. Samples were acidified to a final concentration of 5% acetic acid, desalted over a self-packed C18 spin column and dried. Samples were analyzed by LC-MS/MS (see below) and the MS data was processed with […]
ARγ nrichment for mass spectrometry. MCF7 lysate (2 mg/ml, 0.5 mL) supplemented µ γ was treated with either 23c or 24c (10 µM, 50x stock in DMSO) for one hour at r.t., followed by click chemistry (see above). […] Samples were analyzed by LC-MS/MS (see below) and the MS data was processed with MaxQuant (see below).
LC-MS/MS analysis. Peptides were resuspended in water with 0.1% formic acid (FA) and analyzed using Proxeon EASY-nLC 1000 nano-UHPLC coupled to QExactive Plus Quadrupole-Orbitrap mass spectrometer (Thermo Scientific). […]

Row | Compound | PPARγ enrichment compared with probe 24c (MCF7 lysates spiked with PPARγ, 10 µM probe) | LFQ intensity (PPARG enriched by probe) (10 µM probe) | Ratio 24c/23c (LFQ intensity of PPARG) (MCF7 lysates spiked with PPARγ, 10 µM probes)
1 | C#CCC[C@H](O)[C@H]1C(=C)C(=O)O[C@@H]1c1ccccc1 [23c] | comparable LFQ value | 5.49E+09 | 
2 | C#CCC[C@H](OC(=O)C(=C)C)[C@H]1C(=C)C(=O)O[C@@H]1c1ccccc1 [24c] |  | 5.15E+09 | 0.94
